This note sets out measurements from ChEMBL document CHEMBL6177964 (Eur J Med Chem, 2025).

The source made the active and inactive calls. The rule behind the calls is not given here. Residues, ends and D or L forms follow the SMILES beside them.

One may read the IC50 as the concentration that inhibits the measured activity by half.

The target of experiment [1] is T1, Angiotensin-converting enzyme (Homo sapiens, UniProt P12821). Put plainly: Inhibition of ACE (unknown origin).
For experiment [2], the target named is T1, Angiotensin-converting enzyme. As to the kind of experiment: Inhibition of ACE (unknown origin) preincubated with compound for 5 mins and measured after 60 mins.
The target is the same in experiment [3]. As to the kind of experiment: Binding affinity to ACE (unknown origin) assessed as change in entropy (-TdeltaS) at 800 to 1400 nM by isothermal titration calorimetric analysis. Conditions: dose 800-1400 nM. (ITC needs no label: the signal is the heat of the interaction.)
The target is the same in experiment [4]. Put plainly: Binding affinity to ACE (unknown origin) assessed as change in enthalpy at 800 to 1400 nM by isothermal titration calorimetric analysis. As to conditions: dose 800-1400 nM.
Experiment [5] shares this target. Put plainly: Binding affinity to ACE (unknown origin) assessed as change in entropy (deltaS) at 800 to 1400 nM by isothermal titration calorimetric analysis. As to conditions: dose 800-1400 nM.
Experiment [6] shares this target. Put plainly: Binding affinity to ACE (unknown origin) measured within 14 mins.
Experiment [7] has as its system Rattus norvegicus. As to the kind of experiment: Acute antihypertensive activity in spontaneously hypertensive male Wistar Kyoto rat assessed as reduction in systolic blood pressure at 5 mg/kg administered via gavage measured after 2 hrs by tail-artery manometry. The format is functional.
The test system of experiment [8] is Rattus norvegicus. As to the kind of experiment: Acute antihypertensive activity in spontaneously hypertensive male Wistar Kyoto rat assessed as reduction in diastolic blood pressure at 5 mg/kg administered via gavage measured after 2 hrs by tail-artery manometry. The format is functional.
Experiment [9] deals with Rattus norvegicus. As to the kind of experiment: Subacute antihypertensive activity in spontaneously hypertensive male Wistar Kyoto rat assessed as reduction in systolic blood pressure at 2.5 mg/kg administered via gavage for 4 weeks and measured at 22 hrs post dose by tail-artery manometry. It counts as functional.
Experiment [10] relates to Rattus norvegicus. As to the kind of experiment: Subacute antihypertensive activity in spontaneously hypertensive male Wistar Kyoto rat assessed as reduction in diastolic blood pressure at 2.5 mg/kg administered via gavage for 4 weeks and measured at 22 hrs post dose by tail-artery manometry. It counts as functional.
The subject of experiment [11] is Rattus norvegicus. As to the kind of experiment: Effect on spontaneously hypertensive male Wistar Kyoto rat assessed as reduction in serum ACE activity by measuring hippuric acid level at 2.5 mg/kg administered via gavage for 4 weeks by RP-HPLC analysis. It counts as functional, organism-based.
Experiment [12] relates to Rattus norvegicus. As to the kind of experiment: Effect on spontaneously hypertensive male Wistar Kyoto rat assessed as reduction in Ang II level in serum at 2.5 mg/kg administered via gavage for 4 weeks by ELISA. It counts as functional, organism-based. A general note: An ELISA detects its analyte on a solid surface through an enzyme-linked reagent.
Experiment [13] deals with Rattus norvegicus. As to the kind of experiment: Antihypertensive activity in spontaneously […] male Wistar Kyoto rat assessed as increase in fecal acetic acid level at 5 mg/kg administered via gavage for 4 weeks and measured at 22 hrs post dose by RP-HPLC analysis relative to control. The format is functional.
The test system of experiment [14] is Rattus norvegicus. As to the kind of experiment: Antihypertensive activity in spontaneously […] male Wistar Kyoto rat assessed as increase in fecal propionic acid level at 5 mg/kg administered via gavage for 4 weeks and measured at 22 hrs post dose by RP-HPLC analysis relative to control. It counts as functional.
The subject of experiment [15] is Rattus norvegicus. As to the kind of experiment: Antihypertensive activity in spontaneously […] male Wistar Kyoto rat assessed as increase in fecal butyric acid level at 5 mg/kg administered via gavage for 4 weeks and measured at 22 hrs post dose by RP-HPLC analysis relative to control. The format is functional.
The species named for experiment [16] is Rattus norvegicus. Put plainly: Prevention of gut microbiota dysbiosis in spontaneously hypertensive male Wistar Kyoto rat model assessed as increase in bacteroidetes abundance. The format is functional, organism-based.
The species named for experiment [17] is Rattus norvegicus. Put plainly: Prevention of gut microbiota dysbiosis in spontaneously hypertensive male Wistar Kyoto rat model assessed as decrease in epsilonbacteraeota abundance. The format is functional, organism-based.
The species named for experiment [18] is Rattus norvegicus. Put plainly: Prevention of gut microbiota dysbiosis in spontaneously hypertensive male Wistar Kyoto rat model assessed as increase in enterobacteriaceae abundance relative to control. It counts as functional.
Experiment [19] is filed under the species Rattus norvegicus. As to the kind of experiment: Prevention of gut microbiota dysbiosis in spontaneously hypertensive male Wistar Kyoto rat model assessed as increase in roseburia abundance. It counts as functional, organism-based.
For experiment [20], the target named is T1, Angiotensin-converting enzyme. Put plainly: Binding affinity to ACE (unknown origin).

T1 sequence (P12821 whole entry): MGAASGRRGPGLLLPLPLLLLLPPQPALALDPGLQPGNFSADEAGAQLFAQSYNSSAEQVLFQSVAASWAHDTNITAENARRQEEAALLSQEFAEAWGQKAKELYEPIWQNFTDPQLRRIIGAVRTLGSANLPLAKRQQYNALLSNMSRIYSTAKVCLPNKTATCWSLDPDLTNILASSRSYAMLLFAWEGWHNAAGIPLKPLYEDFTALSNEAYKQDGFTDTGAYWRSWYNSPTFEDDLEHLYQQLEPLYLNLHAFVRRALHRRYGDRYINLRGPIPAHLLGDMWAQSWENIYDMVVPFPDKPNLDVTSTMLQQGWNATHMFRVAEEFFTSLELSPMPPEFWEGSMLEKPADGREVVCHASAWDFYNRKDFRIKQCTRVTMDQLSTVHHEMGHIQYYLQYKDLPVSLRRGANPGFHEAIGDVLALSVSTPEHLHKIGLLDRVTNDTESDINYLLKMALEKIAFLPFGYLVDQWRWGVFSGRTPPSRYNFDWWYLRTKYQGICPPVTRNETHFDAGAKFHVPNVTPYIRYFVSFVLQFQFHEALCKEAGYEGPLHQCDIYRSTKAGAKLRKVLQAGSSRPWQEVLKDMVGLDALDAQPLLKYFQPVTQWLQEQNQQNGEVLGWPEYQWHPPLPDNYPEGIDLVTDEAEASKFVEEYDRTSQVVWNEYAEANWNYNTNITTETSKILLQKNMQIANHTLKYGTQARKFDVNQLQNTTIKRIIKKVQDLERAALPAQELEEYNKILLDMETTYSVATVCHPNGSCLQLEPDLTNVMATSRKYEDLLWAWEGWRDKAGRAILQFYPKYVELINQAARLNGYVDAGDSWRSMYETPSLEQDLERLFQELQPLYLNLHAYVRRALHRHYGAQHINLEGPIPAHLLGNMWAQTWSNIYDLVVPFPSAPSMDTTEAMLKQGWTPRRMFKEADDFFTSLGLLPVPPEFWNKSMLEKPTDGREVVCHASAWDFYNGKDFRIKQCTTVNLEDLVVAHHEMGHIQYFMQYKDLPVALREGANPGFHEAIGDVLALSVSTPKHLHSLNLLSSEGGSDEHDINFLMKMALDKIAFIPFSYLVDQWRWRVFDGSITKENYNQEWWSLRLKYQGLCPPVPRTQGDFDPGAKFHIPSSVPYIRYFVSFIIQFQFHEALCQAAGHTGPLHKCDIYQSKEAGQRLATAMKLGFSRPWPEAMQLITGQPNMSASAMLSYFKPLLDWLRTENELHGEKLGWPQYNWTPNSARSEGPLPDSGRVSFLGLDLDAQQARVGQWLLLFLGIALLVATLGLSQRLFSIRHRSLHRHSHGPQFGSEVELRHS

For the compound `CC(C)C[C@H](NC(=O)[C@H](Cc1c[nH]c2ccccc12)NC(=O)[C@H](CCCCN)NC(=O)[C@H](Cc1ccccc1)NC(=O)[C@@H]1CCCN1C(=O)[C@H](CC(N)=O)NC(=O)[C@@H](NC(=O)[C@@H](NC(=O)[C@@H](N)C(C)C)[C@@H](C)O)C(C)C)C(=O)N1CCC[C@H]1C(=O)O` (H-VTVNPFKWLP-OH), the 50% inhibitory concentration (IC50) in experiment [1] was determined as 5.5 µM.

As for `CC[C@H](C)[C@H](NC(=O)[C@H](CCCCN)NC(=O)[C@H](C)NC(=O)[C@@H](N)CCCCN)C(=O)O` (H-KAKI-OH), the IC50 in experiment [2] is 6890 µM.

Regarding `NCCCC[C@H](N[C@@H](CCc1ccccc1)C(=O)O)C(=O)N1CCC[C@H]1C(=O)O` [LISINOPRIL ANHYDROUS], the -TdeltaS in experiment [3] is -7.21 kcal/mol. Moreover, in experiment [4], the deltaH was -3.21 kcal/mol. In [5], the deltaS was found to be 24.2 cal/mol.K. For the same compound, the outcome (in experiment [6]; with Rattus norvegicus [11]; in the experiment on Rattus norvegicus [12]; in the experiment listed under Rattus norvegicus [16]; in the experiment listed under Rattus norvegicus [17]) was Active. Moreover, the Activity came to 33 mmHg in the experiment with Rattus norvegicus [7]; 28 mmHg in the experiment with Rattus norvegicus [8]; 39 mmHg in the experiment with Rattus norvegicus [9]; 32 mmHg in the experiment on Rattus norvegicus [10]; 76% in the experiment listed under Rattus norvegicus [18]. Moreover, the outcome in the experiment with Rattus norvegicus [13], in the experiment on Rattus norvegicus [14], in the experiment on Rattus norvegicus [15] and in the experiment filed under Rattus norvegicus [19] was inactive.

For `CC(C)C[C@H](NC(=O)[C@H](CCCCN)NC(=O)[C@H](C)NC(=O)[C@@H](N)CCCCN)C(=O)O` (H-KAKL-OH), the IC50 in [2] worked out at 2620 µM.

Turning to `C[C@H](NC(=O)[C@@H](N)CCCCN)C(=O)N[C@@H](CCCCN)C(=O)O` (H-Lys-Ala-Lys-OH), the IC50 in experiment [2] was 1860 µM.

`CC(C)C[C@H](N)C(=O)N[C@@H](C)C(=O)N1CCC[C@H]1C(=O)N[C@@H](Cc1ccc(O)cc1)C(=O)N[C@@H](Cc1c[nH]c2ccccc12)C(=O)O` (H-LAPYW-OH): the half-maximal inhibitory concentration (IC50) in [20] is 5.42 µM.

Turning to `CC(C)C[C@H](NC(=O)CNC(=O)[C@H](CCC(=O)O)NC(=O)[C@@H]1CCCN1C(=O)[C@@H](N)C(C)C)C(=O)N[C@@H](CC(N)=O)C(=O)N[C@@H](CO)C(=O)N[C@@H](Cc1c[nH]c2ccccc12)C(=O)N1CCC[C@H]1C(=O)N[C@@H](Cc1ccccc1)C(=O)O` (H-VPEGLNSWPF-OH), in [2], the IC50 is 73.3 µM.

Regarding `CSCC[C@H](NC(=O)[C@H](CCCCN)NC(=O)[C@H](C)NC(=O)[C@@H](N)CCCCN)C(=O)O` (H-KAKM-OH), in [2], the IC50 came to 789 µM.

The compound `CC(C)C[C@H](NC(=O)[C@H](Cc1c[nH]c2ccccc12)NC(=O)[C@@H](N)CCCCN)C(=O)N1CCC[C@H]1C(=O)O` (H-KWLP-OH) displayed an IC50 in [1] of 5 µM.
